Measured values from patent publication US10105403B2, “Methods of treating iron deficiency to prevent iron-deficiency anemia by administration of Lactobacillus plantarum” (Probi AB, priority 2005, dated 2018).

Test system: Caco-2 cells
Experiment: Cellular 55Fe uptake and transfer across Caco-2 monolayers with bacterial suspensions
Assay type: cell-based
Description: Caco-2 cells were obtained from the American Type Culture Collection (Rockville, Md.) at passage 17 and used for experiments at passages 20-35. Stock cultures were maintained in Dulbecco's modified […] medium (DMEM) supplemented with 20% (v/v) fetal calf serum (FSC), […] penicillin G, and 100 mg/L streptomycin at 37° C. in a huminified atmosphere of 95% air-5% CO2. The growth medium was changed every second to third day. Cells were split at ˜80% confluence using 0.5 g/L trypsin with 0.5 mmol/L EDTA in Dulbecco's phosphate buffered saline (PBS). […]
Lactobacillus plantarum 299v (DSM9843), (5), Lactobacillus plantarum 299, (1), Lactobacillus plantarum Heal 9 (DSM 15312), (2), Lactobacillus plantarum Heal 19 (DSM15313), (4), Lactobacillus plantarum 299v mutant (AMJ1277), (3) and Lactobacillus reuteri, (6) were cultured in MRS broth at a rotary shaker (37° C., 200 rpm). […] The volume of cell culture corresponding to a certain cell-number was calculated from a predetermined standard curve. […]
Fresh supplemented DMEM was provided to the cells 1 day prior to the uptake and transfer assays. […] After 2 h incubation, the cells were washed four times with ice-cold wash buffer (150 mmol/L NaCl, 10 mmol/L HEPES, 1 mmol/L EDTA, pH7) and homogenized in 0.5M NaOH. ^55Fe transferred to the basolateral chamber or associated with the Caco-2 lysates was measured by liquid scintillation counting. […]

Substance: Lactobacillus reuteri
- Transport % (FeCl3 10 μmol/l in HBSS/HEPES, 55Fe traced, 2 h incubation, 6.7×10^7 cells/ml (Lactobacillus reuteri 3.35×10^7 cells/ml), control without bacteria 0.06): 0.11%
- Effect on Fe transport (in words) (FeCl3 10 μmol/l, Caco-2 monolayers, compared to neat Fe solution): an increase of the transport is seen, but not comparable with the different Lactobacillus plantarum strains
